Results: patent US20150157588A1, “Pharmaceutical Composition Comprising Amino-Phenyl-Acetic Acid Octadec-(Z)-9-enyl Ester and Use Thereof for Treating Tumors” (Yeda Research and Development Co., Ltd., priority 2012, published 2015)

Test system: anti-CD3-activated T cells
Assay: Microarray gene expression, T cells activated by anti-CD3 antibody
Type: cell-based, human
Details: for Fold change CCL7: 208075_s_at; for Fold change INDO: 210029_at; for Fold change RSAD2: 213797_at; for Fold change LYZ /// RFK: 213975_s_at; for Fold change CCL8: 214038_at; for Fold change CXCL5: 215101_s_at; for Fold change ANKRD12: 216563_at; for Fold change CCL2: 216598_s_at; for Fold change HIG2: 218507_at; for Fold change C1orf165: 219670_at; for Fold change IL1F9: 220322_at; for Fold change IL22: 221165_s_at; for Fold change PDE3B: 222330_at
Description: CD3 positive T cells were extracted from a healthy donor according to a standard protocol, and seeded in T cell medium including RPMI, 10% fetal calf serum, sodium pyruvate, L-Glutamine, and Penicillin/Streptomycin. Following an overnight incubation with medium, the cells were treated by incubating for 2 hours at 37° C. with amino-phenyl-acetic acid octadec-(Z)-9-enyl ester at a concentration of 10 micrograms/ml in a final volume of 10 ml in T-cell medium with or without 0.05% ethanol. After incubation, half the cells from each treatment were centrifuged and 2 ml of Tri-reagent (Sigma) were added to the pellet. The other half of the cells from each treatment were transferred to anti-CD3 antibody coated 24 well plates for an overnight incubation at 37° C. Coating plates with an anti-CD3 antibody was carried out by incubating with 2 micrograms/ml of OKT3 anti-CD3 antibody overnight at 4° C., washing three times with PBS and blocking with filtered 1% Bovine Serum Albumin for 1 hour. After activation with anti-CD3 antibody, cells were centrifuged and 2 ml of Tri-reagent were added to the pellet.
RNA was extracted from unstimulated cells and from cells activated with anti-CD3 according to standard protocols and used for hybridization with a Human Genome U133A 2.0 (Affymetrix, Catalogue number 900468), according to the manufacturer's instructions. The results of the hybridization were read by a GeneChip scanner 3000 (Affymetrix) and analyzed by QuantArray (GSI lumonics).
The effects of amino-phenyl-acetic acid octadec-(Z)-9-enyl ester in ethanol solution or in an aqueous vehicle (hereinafter termed “in PBS”) on gene expression in unstimulated T cells and T cells activated by anti-CD3 antibody were compared by microarray analysis.

[1] = anti-CD3-activated T cells, in ethanol solution vs in PBS
[2] = anti-CD3-activated T cells, in ethanol solution vs untreated
[3] = anti-CD3-activated T cells, in PBS vs untreated

## CCCCCCCC/C=C\CCCCCCCCOC(=O)C(N)c1ccccc1 (centres unmarked) [amino-phenyl-acetic acid octadec-(Z)-9-enyl ester]
[1]
  Fold change CCL7: 2.01
  Fold change INDO: 2.08
  Fold change RSAD2: 3.11
  Fold change LYZ /// RFK: 2.02
  Fold change CCL8: 2.33
  Fold change probeset 216575_at: 2.69
  Fold change CCL2: 5.27
  Fold change HIG2: −2.31
  Fold change C1orf165: −2.22
  Fold change IL1F9: 2.74
  Fold change IL22: −3.03
  Fold change PDE3B: 1.99
[2]
  Fold change CCL7: 1.991
  Fold change INDO: 2.47
  Fold change RSAD2: 2.28
  Fold change LYZ /// RFK: 2.00
  Fold change CCL8: 2.23
  Fold change CXCL5: 2.31
  Fold change ANKRD12: 2.48
  Fold change probeset 216575_at: 2.31
  Fold change CCL2: 5.00
  Fold change HIG2: −2.17
  Fold change C1orf165: −2.29
  Fold change IL1F9: 3.10
  Fold change IL22: −2.63
  Fold change PDE3B: 1.97
208605_s_at, anti-CD3-activated T cells, in ethanol solution vs untreated
  Fold change NTRK1: 2.03
209277_at, anti-CD3-activated T cells, in ethanol solution vs in PBS
  Fold change TFPI2: 2.53
209277_at, anti-CD3-activated T cells, in ethanol solution vs untreated
  Fold change TFPI2: 3.32
209278_s_at, anti-CD3-activated T cells, in ethanol solution vs in PBS
  Fold change TFPI2: 2.99
209278_s_at, anti-CD3-activated T cells, in ethanol solution vs untreated
  Fold change TFPI2: 3.87
209395_at, anti-CD3-activated T cells, in ethanol solution vs in PBS
  Fold change CHI3L1: 2.69
209395_at, anti-CD3-activated T cells, in ethanol solution vs untreated
  Fold change CHI3L1: 3.40
209396_s_at, anti-CD3-activated T cells, in ethanol solution vs in PBS
  Fold change CHI3L1: 2.15
209396_s_at, anti-CD3-activated T cells, in ethanol solution vs untreated
  Fold change CHI3L1: 2.58
210117_at, anti-CD3-activated T cells, in ethanol solution vs in PBS
  Fold Change SPAG1: −1.90
210118_s_at, anti-CD3-activated T cells, in ethanol solution vs untreated
  Fold change IL1A: 2.02
210145_at, anti-CD3-activated T cells, in ethanol solution vs untreated
  Fold change PLA2G4A: 2.00
210370_s_at, anti-CD3-activated T cells, in ethanol solution vs in PBS
  Fold Change LY9: 2.25
210511_s_at, anti-CD3-activated T cells, in ethanol solution vs untreated
  Fold change INHBA: 1.96
210772_at, anti-CD3-activated T cells, in ethanol solution vs untreated
  Fold change FPRL1: 2.00
210845_s_at, anti-CD3-activated T cells, in ethanol solution vs in PBS
  Fold change PLAUR: 2.01
210845_s_at, anti-CD3-activated T cells, in ethanol solution vs untreated
  Fold change PLAUR: 2.02
210943_s_at, anti-CD3-activated T cells, in ethanol solution vs untreated
  Fold change LYST: 2.45
211429_s_at, anti-CD3-activated T cells, in ethanol solution vs untreated
  Fold change SERPINA1: 2.06
211506_s_at, anti-CD3-activated T cells, in ethanol solution vs untreated
  Fold change IL8: 2.69
211924_s_at, anti-CD3-activated T cells, in ethanol solution vs untreated
  Fold change PLAUR: 1.91
212141_at, anti-CD3-activated T cells, in ethanol solution vs in PBS
  Fold Change MCM4: −1.98
212142_at, anti-CD3-activated T cells, in ethanol solution vs in PBS
  Fold Change MCM4: −2.80
212657_s_at, anti-CD3-activated T cells, in ethanol solution vs untreated
  Fold change IL1RN: 1.98
212659_s_at, anti-CD3-activated T cells, in ethanol solution vs untreated
  Fold change IL1RN: 1.90
[3]
  Fold change CXCL5: 1.995
  Fold change ANKRD12: 1.94
215223_s_at, anti-CD3-activated T cells, in ethanol solution vs untreated
  Fold change SOD2: 1.95
215284_at, anti-CD3-activated T cells, in ethanol solution vs untreated
  Fold change SNX9: 2.44
215415_s_at, anti-CD3-activated T cells, in ethanol solution vs untreated
  Fold change LYST: 2.09
215967_s_at, anti-CD3-activated T cells, in ethanol solution vs in PBS
  Fold Change LY9: 2.05
215967_s_at, anti-CD3-activated T cells, in ethanol solution vs untreated
  Fold Change LY9: 2.2
216243_s_at, anti-CD3-activated T cells, in ethanol solution vs untreated
  Fold change IL1RN: 1.99
217678_at, anti-CD3-activated T cells, in ethanol solution vs untreated
  Fold change SLC7A11: 1.92
217853_at, anti-CD3-activated T cells, in ethanol solution vs in PBS
  Fold Change TNS3: 2.00
218035_s_at, anti-CD3-activated T cells, in ethanol solution vs untreated
  Fold change FLJ20273: 2.17
218585_s_at, anti-CD3-activated T cells, in ethanol solution vs in PBS
  Fold Change DTL: −1.93
219437_s_at, anti-CD3-activated T cells, in ethanol solution vs untreated
  Fold change ANKRD11: 2.84
220651_s_at, anti-CD3-activated T cells, in ethanol solution vs untreated
  Fold change MCM10: −2.05
221478_at, anti-CD3-activated T cells, in ethanol solution vs in PBS
  Fold Change BNIP3L: −2.45
221478_at, anti-CD3-activated T cells, in ethanol solution vs untreated
  Fold Change BNIP3L: −2.28
221479_s_at, anti-CD3-activated T cells, in ethanol solution vs in PBS
  Fold Change BNIP3L: −2.00
221521_s_at, anti-CD3-activated T cells, in ethanol solution vs in PBS
  Fold Change GINS2: −1.99
221917_s_at, anti-CD3-activated T cells, in PBS vs untreated
  Fold change GRSF1: 1.92
Activated T cells, in PBS vs untreated
  down-regulated genes: no down-regulated genes
